Results: patent US8372991B2, “Trisubstituted thiophenes that modulate intracellular calcium” (Calcimedica, Inc., priority 2008, dated 2013)

How the values were obtained:
[1] = target: STIM1 and Orai1 in human embryonic kidney 293 cells (HEK293 cells) (Homo sapiens, UniProt Q96D31); conditions: HEK293 co-expressing STIM1 and Orai1; cited from earlier work
[2] = system: JR251 or RBL cells; assay: Store-operated calcium entry IC50 in either JR251 or RBL cells; type: cell-based
Experimental: (§1) The day prior to performing the assay Orai1/STIM1 stable cells were plated in 50 μL of complete medium at 90-95% confluence in a 384 well plate. Cells were grown at 37° C./6% CO2 overnight. On the day of the assay, 1.5 μM fluo-4-AM (Invitrogen) in complete medium was added to the cells, which were then incubated for 1 hour at RT. Cells were washed once in Ca^2+-free HBSS (Hank's buffered saline solution) and 35 μl of Ca^2+-free HBSS was added to each well. Test compounds were added to wells in a 10 μL Ca^2+-free HBSS solution, prepared at 4.5× the desired final concentration, and incubated for 30 minutes at RT. The initial baseline fluorescence signal was then measured with a FLIPR^384 (Molecular Devices) plate reader. Calcium entry was initiated by adding 5 μl of 10× CaCl2 (10 mM) in HBSS, and changes in cellular fluorescence were measured with the FLIPR^384 plate reader. In each well, the magnitude of the fluorescence signal as a result of calcium entry into the cell was determined by calculating the difference between the peak fluorescence signal measured after calcium addition and the initial baseline fluorescence signal (designated Peak-Basal). IC50 values were typically calculated as the concentration that inhibited 50% of the Peak-Basal signal (Table A).
(§2) The day prior to performing the assay, RBL-2H3 cells are plated in 50 μL of complete medium in a 384 well plate. Cells are grown at 37° C./6% CO2 overnight and grow to 50-60% confluence by the next day. On the assay day, 1.5 μM Fluo-4-AM dye (Invitrogen) in complete medium is added and incubated for 1 hour at RT. Cells are washed twice in Ca^2+-free HBSS buffer and 35 μL Ca^2+-free HBSS buffer is added to each well. 10 μL of a test compound prepared in a Ca^2+-free HBSS solution at 4.5× of the desired concentration is added to a well and incubated for 5 minutes at RT. 10 μL of thapsigargin prepared in a Ca^2+-free HBSS solution at 5.5× of the desired concentration (5.5 uM) is added to each well and incubated for an additional 25 minutes. The initial baseline fluorescence signal is measured with a FLIPR^384 (Molecular Devices) plate reader. 5 μL of 12× calcium in HBSS (12 mM) is added and changes in cellular fluorescence are measured with the FLIPR^384 plate reader. In each well, the change in the fluorescent signal as a function of time due to calcium entry into the cell is determined by calculating the difference between the fluorescent signal measured 7 seconds after calcium addition and the initial baseline fluorescence signal at time zero (t=0). This parameter is designated Upslope. The IC50 value is calculated as the concentration at which 50% of the Upslope is inhibited.

[3] = system: RBL-2H3 cells; assay: Fluorescence-based assay of store-operated calcium entry in RBL-2H3 cells; type: cell-based; conditions: Rattus norvegicus, thapsigargin, 50% inhibition of Upslope
Experimental: B. Fluorescence-Based Assay of Store-Operated Calcium Entry in RBL-2H3 Cells.
RBL-2H3 cells were obtained from ATCC and maintained in complete medium with 10% FBS at 37° C./6% CO2.
as §2

[4] = system: Jurkat cells; conditions: Jurkat cells and colon cancer cells; cited from earlier work
[5] = Fluorescence-based assay of store-operated calcium entry in Orai1/STIM1 stable cells (Table A JR251); type: cell-based; conditions: Homo sapiens, 50% inhibition of Peak-Basal fluorescence signal
Experimental: A. Fluorescence-Based Assay of Store-Operated Calcium Entry in Orai1/STIM1 Stable Cells.
Cells stably expressing recombinant human STIM1 and Orai1 were generated by transfecting a human Orai1 expression plasmid (pcDNA3.1-Orai1-cmyc) into HEK-293 cells stably overexpressing human STIM1 (Roos et al. 2005 JCB 169(3): 435-445). Colonies of cells stably expressing both STIM1 and Orai1 proteins were selected and then subcloned by limiting dilution. Cells were cultured at 37° C./6% CO2 in complete medium with 10% FBS and appropriate selection markers.
as §1

STIM1 and Orai1 in human embryonic kidney 293 cells (HEK293 cells), sequence (Q96D31 whole entry): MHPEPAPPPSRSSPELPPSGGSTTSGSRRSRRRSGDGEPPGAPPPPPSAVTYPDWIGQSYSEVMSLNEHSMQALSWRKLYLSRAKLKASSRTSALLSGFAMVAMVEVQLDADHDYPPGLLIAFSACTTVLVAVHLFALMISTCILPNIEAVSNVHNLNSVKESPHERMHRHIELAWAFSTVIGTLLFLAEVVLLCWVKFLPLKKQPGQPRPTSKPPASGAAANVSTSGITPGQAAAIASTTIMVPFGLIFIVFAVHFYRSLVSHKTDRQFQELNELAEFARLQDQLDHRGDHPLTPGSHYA

Row | SMILES | IC50 [2] [µM] | other results
1 | NCCOB(c1ccccc1)c1ccccc1 [2-aminoethoxydiphenylborate] |  | block of store-dependent Ca2+ entry [1]: completely blocked
2 | Cc1nnsc1C(=O)Nc1scc(-c2cnn(-c3ccc(Cl)cc3)c2)c1C(=O)O [4-(1-(4-chlorophenyl)-1H-pyrazol-4-yl)-2-(4-methyl-1,2,3-thiadiazole-5-carboxamido)thiophene-3-carboxylic acid] | < 10 | 
3 | O=C(Nc1scc(-c2cnn(-c3ccc(Cl)cc3)c2)c1C(=O)O)c1ccnnc1 [4-(1-(4-chlorophenyl)-1H-pyrazol-4-yl)-2-(pyridazine-4-carboxamido)thiophene-3-carboxylic acid] | < 10 | 
4 | O=C(Nc1scc(-c2nc3ccccc3n2C(F)F)c1C(=O)O)c1cccc(F)c1 [4-(1-(difluoromethyl)-1H-benzo[d]imidazol-2-yl)-2-(3-fluorobenzamido)thiophene-3-carboxylic acid] | < 10 | 
5 | Cc1nc(N2CCCCC2)ncc1-c1csc(NC(=O)c2cnccn2)c1C(=O)O [4-(4-methyl-2-(piperidin-1-yl)pyrimidin-5-yl)-2-(pyrazine-2-carboxamido)thiophene-3-carboxylic acid] | < 10 | 
6 | Cc1nc(N2CCCCC2)ncc1-c1csc(NC(=O)c2ccnnc2)c1C(=O)O [4-(4-methyl-2-(piperidin-1-yl)pyrimidin-5-yl)-2-(pyridazine-4-carboxamido)thiophene-3-carboxylic acid] | < 10 | 
7 | O=C(CCc1cccc(F)c1)Nc1scc(-c2ccc(Cl)nc2)c1C(=O)O [4-(6-chloropyridin-3-yl)-2-(3-(3-fluorophenyl)propanamido)thiophene-3-carboxylic acid] | < 10 | 
8 | O=C(Nc1scc(-c2ccc3nonc3c2)c1C(=O)O)c1cc2ccccc2o1 [4-(benzo[c][1,2,5]oxadiazol-5-yl)-2-(benzofuran-2-carboxamido)thiophene-3-carboxylic acid] | < 10 | 
9 | O=C(Nc1scc(-c2nc3ccccc3s2)c1C(=O)O)c1cc2ccccc2o1 [4-(benzo[d]thiazol-2-yl)-2-(benzofuran-2-carboxamido)thiophene-3-carboxylic acid] | < 10 | 
10 | O=C(Nc1scc(-c2cccs2)c1C(=O)O)c1ccccc1Cl [5′-(2-chlorobenzamido)-2,3′-bithiophene-4′-carboxylic acid] | < 10 | 
11 | Cc1ccc(-c2csc(NC(=O)c3cccc(F)c3)c2C(=O)O)s1 [5′-(3-fluorobenzamido)-5-methyl-2,3′-bithiophene-4′-carboxylic acid] | < 10 | 
12 | O=C(Nc1scc(-c2ccc(Cl)s2)c1C(=O)O)c1cc2ccccc2o1 [5′-(benzofuran-2-carboxamido)-5-chloro-2,3′-bithiophene-4′-carboxylic acid] | < 10 | 
13 | COc1ccc(/C=C/C(=O)Nc2scc(-c3cccs3)c2C(=O)O)cc1OC [(E)-5′-(3-(3,4-dimethoxyphenyl)acrylamido)-2,3′-bithiophene-4′-carboxylic acid] | < 10 | 
14 | Cc1ccc(-c2csc(NC(=O)c3cccc(F)c3)c2C(=O)O)s1 [A] |  | IC50 [3]: 1 to 10 µM
15 | Cc1nnsc1C(=O)Nc1ccc(-n2nc(C(F)(F)F)cc2C(F)(F)F)cc1 [BTP-2] |  | inhibition of SOCE [4]: inhibits; inhibition of proliferation [4]: inhibits
16 | O=C(Nc1scc(-c2ccc(Cl)s2)c1C(=O)O)c1cc2ccccc2o1 [B] |  | IC50 [3]: ≤ 0.5 µM
17 | Cc1csc(-c2csc(NC(=O)c3cccc(F)c3)c2C(=O)O)n1 [C] |  | IC50 [3]: 1 to 10 µM
18 | O=C(Nc1scc(-c2nc3ccccc3n2C(F)F)c1C(=O)O)c1cc2ccccc2o1 [Compound I] |  | IC50 [3]: 1 to 10 µM
19 | COc1ccc(-c2csc(NC(=O)c3cccc(F)c3)c2C(=O)O)cn1 [D] |  | IC50 [3]: 1 to 10 µM
20 | COc1ccc(-c2csc(NC(=O)c3cc4ccccc4o3)c2C(=O)O)cn1 [E] |  | IC50 [3]: 1 to 10 µM
21 | O=C(Nc1scc(-c2cnc(C(F)(F)F)nc2)c1C(=O)O)c1cc2ccccc2o1 [F] |  | IC50 [5]: ≤ 0.5 µM; IC50 [3]: ≤ 0.5 µM
22 | O=C(CCc1cccc(F)c1)Nc1scc(-c2ccc(Cl)nc2)c1C(=O)O [G] |  | IC50 [5]: 1 to 10 µM
23 | O=C(Nc1scc(-c2c[nH]c3ccccc23)c1C(=O)O)c1cccc(F)c1 [H] |  | IC50 [3]: 1 to 10 µM
24 | O=C(Nc1scc(-c2ccc3scnc3c2)c1C(=O)O)c1cc2ccccc2o1 [J] |  | IC50 [5]: ≤ 0.5 µM; IC50 [3]: ≤ 0.5 µM
25 | Cc1ccc(-c2csc(NC(=O)c3cc4ccccc4o3)c2C(=O)O)c2ccccc12 [K] |  | IC50 [5]: ≤ 0.5 µM; IC50 [3]: 1 to 10 µM
26 | Cc1ccc(-c2csc(NC(=O)c3cc4ccccc4o3)c2C(=O)O)c2cccnc12 [L] |  | IC50 [5]: ≤ 0.5 µM; IC50 [3]: ≤ 0.5 µM

Further lines, with some results ahead:

Row | IC50 [2] [µM] | SMILES | other results
27 | < 10 | O=C(Nc1scc(-c2cnn(-c3ccc(Cl)cc3)c2)c1C(=O)O)c1cnccn1 [4-(1-(4-chlorophenyl)-1H-pyrazol-4-yl)-2-(pyrazine-2-carboxamido)thiophene-3-carboxylic acid] | 
28 | < 10 | O=C(Nc1scc(-c2cnn(-c3ccc(Cl)cc3)c2)c1C(=O)O)c1cncnc1 [4-(1-(4-chlorophenyl)-1H-pyrazol-4-yl)-2-(pyrimidine-5-carboxamido)thiophene-3-carboxylic acid] | 
29 | < 10 | Cc1nnsc1C(=O)Nc1scc(-c2c(C)nn(-c3ccccc3)c2C)c1C(=O)O [4-(3,5-dimethyl-1-phenyl-1H-pyrazol-4-yl)-2-(4-methyl-1,2,3-thiadiazole-5-carboxamido)thiophene-3-carboxylic acid] | 
30 | < 10 | Cc1nc(N2CCCCC2)ncc1-c1csc(NC(=O)c2cncnc2)c1C(=O)O [4-(4-methyl-2-(piperidin-1-yl)pyrimidin-5-yl)-2-(pyrimidine-5-carboxamido)thiophene-3-carboxylic acid] | 
31 | < 10 | O=C(Nc1scc(-c2ccc(Cl)nc2)c1C(=O)O)c1cccc(F)c1 [4-(6-chloropyridin-3-yl)-2-(3-fluorobenzamido)thiophene-3-carboxylic acid] | 
32 | < 10 | O=C(Nc1scc(-c2cc3ccccc3s2)c1C(=O)O)c1cc2ccccc2o1 [4-(benzo[b]thiophen-2-yl)-2-(benzofuran-2-carboxamido)thiophene-3-carboxylic acid] | 
33 | < 10 | O=C(Nc1scc(-c2ccc3scnc3c2)c1C(=O)O)c1cc2ccccc2o1 [4-(benzo[d]thiazol-5-yl)-2-(benzofuran-2-carboxamido)thiophene-3-carboxylic acid] | 
34 | < 10 | O=C(Nc1scc(-c2cnccn2)c1C(=O)O)c1ccnnc1 [4-(pyrazin-2-yl)-2-(pyridazine-4-carboxamido)thiophene-3-carboxylic acid] | 
35 | < 10 | O=C(Nc1scc(-c2cccs2)c1C(=O)O)c1ccc(F)cc1 [5′-(4-fluorobenzamido)-2,3′-bithiophene-4′-carboxylic acid] | 
36 | < 10 | O=C(Nc1scc(-c2ccc(Br)s2)c1C(=O)O)c1cc2ccccc2o1 [5′-(benzofuran-2-carboxamido)-5-bromo-2,3′-bithiophene-4′-carboxylic acid] | 
37 | < 10 | Cc1ccc(-c2csc(NC(=O)c3cc4ccccc4o3)c2C(=O)O)s1 [5′-(benzofuran-2-carboxamido)-5-methyl-2,3′-bithiophene-4′-carboxylic acid] | 
38 | < 10 | O=C(Nc1cc(-c2nc3ccccc3[nH]2)cs1)c1cccc(F)c1 [N-(4-(1H-benzo[d]imidazol-2-yl)thiophen-2-yl)-3-fluorobenzamide] | 
